Results reported in EP0907632B1, “INHIBITION OF MATRIX METALLOPROTEASES BY SUBSTITUTED PHENETHYL COMPOUNDS” (Bayer Corporation, priority 1996, dated 1997).

Experiments:
[1] = target: T1, MMP-9 (Homo sapiens, UniProt P14780); assay type: biochemical; settings: 6 µM P218 substrate, pH 6.5, 25 min at 37°C; calculated from IC50; read-out: MMP-9 Kf
T1 construct: made in house
Excerpt: (§1) The P218 quenched fluorescence assay (Microfluorometric Profiling Assay) is a modification of that originally described by Knight, et al., FEBS Lett. 296, 263, 1992 for a related substance and a variety of matrix metalloproteinases (MMPs) in cuvettes. The assay was run with each invention compound and the three MMPs, Mmp-3, MMP-9 and MMP-2, analyzed in parallel, adapted as follows for a 96-well microtiter plate and a Hamilton AT® workstation. P218 Fluorogenic Substrate: P218 is a synthetic substrate containing a 4-acetyl-7-methoxycoumarin (MCA) group in the N-terminal position and a 3-[2, 4-dinitrophenyl]-L-2,3-diaminopropionyl (DPA) group internally. This is a modification of a peptide reported by Knight (1992) that was used as a substrate for matrix metalloproteinases. Once the P218 peptide is cleaved (putative clip site at the Ala-Leu bond), the fluorescence of the MCA group can be detected on a fluorometer with excitation at 328 nm and emission at 393 nm. P218 is currently being produced BACHEM exclusively for Bayer. P218 has the structure: H-MCA-Pro-Lys-Pro-Leu-Ala-Leu-DPA-Ala-Arg-NH2 (MW 1332.2)
Recombinant Human Pro-MMP-9: Human pro-gelatinase B (pro-MMP-9) derived from U937 cDNA as described by Wilhelm, et al. J. Biol. Chem. 264, 17213, 1989 was expressed as the full-length form using a baculovirus protein expression system. The pro-enzyme was purified using methods previously described by Hibbs, et al. J. Biol. Chem. 260, 2493, 1984.
Activation of Pro-MMP-9: […] 20 µg/mL in 50 mM Tris at pH 7.4, 10mM CaCl2, 150 mM NaCl, and 0.005% Brij-35 (MMP-9 activation buffer) was activated by incubation with 0.5 mM p-aminophenylmercuric acetate (APMA) for 3.5 h at 37 °C. The enzyme was dialyzed against the same buffer to remove the APMA.
(§2) Hamiltion Microlab AT P!us: The MMP-Profiling Assay is performed robotically on a Hamilton MicroLab AT Plus®. The Hamilton is programmed to: (1) serially dilute up to 11 potential inhibitors automatically from a 2.5 mM stock in 100% DMSO; (2) distribute substrate followed by inhibitor into a 96 well Cytofluor plate; and (3) add a single enzyme to the plate with mixing to start the reaction. Subsequent plates for each additional enzyme are prepared automatically by beginning the program at the substrate addition point, remixing the diluted inhibitors and beginning the reaction by addition of enzyme. In this way, all MMP assays were done using the same inhibitor dilutions.
(§3) Millipore Cytofluor II. Following incubation, the plate was read on a Cytofluor II fluorometric place reader with excitation at 340 nm and emission at 395 nm with the gain set at 80.
(§4) Microfluorometric Reaction Buffer (MRB): Dilution of test compounds, enzymes, and P218 substrate for the microfluorometric assay were made in microfluorometric reaction buffer consisting of 50 mM 2-(N-morpholino)ethanesulfonic acid (MES) at pH 6.5 with 10 mM CaCl2, 150 mM NaCl, 0.005% Brij-35 and 1% DMSO.
(§5) MMP Microfluorometric Profiling Assay. The assay is done with a final substrate concentration of 6 µM P218 and approximately .5 to .8 nM MMP with variable drug concentrations. The Hamilton is programmed to serially dilute up to 11 compounds from a 2.5 mM stock (100% DMSO) to 10x the final compounds concentrations in the assay. Initially, the instrument delivers various amounts of microfluoromentric reaction buffer (MRB) to a 96 tube rack of 1 ml Marsh dilution tubes. The instrument then picks up 20 µl of inhibitor (2.5 mM) from the sample rack and mixes it with a buffer in row A of the Marsh rack, resulting in a 50 µM drug concentration. The inhibitors are then serially diluted to 10, 5, 1, .2, .05 and .01 µM. Position 1 on the sample rack contains only DMSO for the "enzyme-only" wells in the assay, which results in no inhibitor in column 1, rows A through H. The instrument then distributes 107 µl of P218 substrate (8.2 µM in MRB) to a single 96 well cytofluor microtiter plate. […]

[2] = target: T2, MMP-2 (Homo sapiens, UniProt P08253); assay: biochemical
T2 sequence (P08253 110-660): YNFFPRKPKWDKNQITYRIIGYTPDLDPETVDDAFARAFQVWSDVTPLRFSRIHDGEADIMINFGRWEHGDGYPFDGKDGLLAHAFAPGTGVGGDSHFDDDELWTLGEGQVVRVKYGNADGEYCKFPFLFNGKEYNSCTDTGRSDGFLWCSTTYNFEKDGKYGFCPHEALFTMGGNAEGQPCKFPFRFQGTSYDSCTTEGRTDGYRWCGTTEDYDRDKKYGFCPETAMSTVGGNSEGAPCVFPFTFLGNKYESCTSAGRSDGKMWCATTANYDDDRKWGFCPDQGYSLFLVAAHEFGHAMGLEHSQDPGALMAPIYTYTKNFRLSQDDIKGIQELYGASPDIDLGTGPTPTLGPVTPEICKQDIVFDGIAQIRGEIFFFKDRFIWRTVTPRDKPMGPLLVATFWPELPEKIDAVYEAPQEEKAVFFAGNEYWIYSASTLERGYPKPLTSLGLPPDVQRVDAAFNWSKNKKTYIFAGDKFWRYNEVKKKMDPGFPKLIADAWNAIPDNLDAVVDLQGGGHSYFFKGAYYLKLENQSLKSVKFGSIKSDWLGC

[3] = target: T3, MMP-3 (Homo sapiens, UniProt P08254); assay type: biochemical; settings: 6 µM P218 substrate, pH 6.5, 25 min at 37°C; calculated from IC50; read-out: MMP-3 Kf
T3 construct: made in house; host or cells: CHO cells
Excerpt: as §1
Recombinant Human CHO Pro-MMP-3: Human CHO pro-stromelysin-257 (pro-MMP-3) was expressed and purified as described by Housley, et al., J. Biol. Chem. 268, 4481, 1993.
Activation of Pro-MMP-3 Pro-MMP-3 at 1.72 µM (100 µg/mL) in 5 mM Tris at pH 7.5, 5 mM CaCl2, 25 mM NaCl, and 0.005% Brij-35 (MMP-3 activation buffer) was activated by incubation with TPCK (N-tosyl-(L)-phenylalanine chloromethyl ketone) trypsin (1:100 w/w to pro-MMP-3) at 25 °C for 30 min. The reaction was stopped by addition of soybean trypsin inhibitor (SBTI: 5:1 w/w to trypsin concentration). This activation protocol results in the formation of 45 kDa active MMP-3, which still contains the C-terminal portion of the enzyme.
as §2, §3, §4, §5

T3 sequence (P08254 100-477): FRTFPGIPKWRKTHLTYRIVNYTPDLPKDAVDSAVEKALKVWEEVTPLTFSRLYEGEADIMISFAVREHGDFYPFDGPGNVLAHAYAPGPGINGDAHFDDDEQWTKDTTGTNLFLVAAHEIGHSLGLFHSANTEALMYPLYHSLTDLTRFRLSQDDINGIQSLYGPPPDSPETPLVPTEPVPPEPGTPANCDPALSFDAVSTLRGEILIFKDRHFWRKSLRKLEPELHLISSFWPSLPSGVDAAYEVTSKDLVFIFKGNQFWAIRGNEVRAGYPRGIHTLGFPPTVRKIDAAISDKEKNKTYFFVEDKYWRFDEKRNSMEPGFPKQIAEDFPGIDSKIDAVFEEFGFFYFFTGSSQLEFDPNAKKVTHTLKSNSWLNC
T1 sequence (P14780 107-707 limits assumed): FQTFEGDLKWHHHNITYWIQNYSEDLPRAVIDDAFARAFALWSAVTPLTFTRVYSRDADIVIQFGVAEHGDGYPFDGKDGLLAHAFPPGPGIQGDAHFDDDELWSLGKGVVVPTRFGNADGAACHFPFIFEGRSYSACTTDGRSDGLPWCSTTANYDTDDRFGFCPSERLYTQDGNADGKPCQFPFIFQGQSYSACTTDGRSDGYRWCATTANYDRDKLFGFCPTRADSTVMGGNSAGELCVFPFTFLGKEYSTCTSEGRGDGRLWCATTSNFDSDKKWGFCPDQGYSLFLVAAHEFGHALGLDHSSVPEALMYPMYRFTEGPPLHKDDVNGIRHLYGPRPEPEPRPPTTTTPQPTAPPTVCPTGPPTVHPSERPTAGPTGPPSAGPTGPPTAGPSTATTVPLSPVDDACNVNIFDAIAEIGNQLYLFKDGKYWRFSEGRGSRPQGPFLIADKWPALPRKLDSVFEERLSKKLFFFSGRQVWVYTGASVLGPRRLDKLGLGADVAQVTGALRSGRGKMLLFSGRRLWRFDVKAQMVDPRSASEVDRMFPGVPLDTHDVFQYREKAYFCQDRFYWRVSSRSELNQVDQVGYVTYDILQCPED

SMILES	Ki [1] [nM]	Ki [2] [nM]	Ki [3] [nM]
O=C(CC(CCc1ccc(C(=O)N2CCCCC2)cc1)C(=O)O)c1ccc(-c2ccc(Cl)cc2)cc1 (stereo not drawn) [Compound XXI, 4'-chloro-γ-oxo-α-[2-[4-(1-piperidinylcarbonyl)phenyl]ethyl]-[1,1'-Biphenyl]-4-butanoic acid]	806	84.1	242
CCCCCOc1ccc(-c2ccc(C(=O)CC(CCc3cccc(C(=O)N4CCCCC4)c3)C(=O)O)cc2)cc1 (stereo not drawn) [Compound XXXI, γ-oxo-4'-(pentyloxy)-α-[2-[3-(1-piperidinylcarbonyl)phenyl]ethyl]-[1,1'-biphenyl]-4-butanoic acid]	373	17	35.8
O=C(CC(CCc1ccccc1C(=O)NCc1ccccc1)C(=O)O)c1ccc(-c2ccc(Cl)cc2)cc1 (stereo not drawn) [III, 4'-chloro-γ-oxo-α-[2-[2-[[(phenylmethyl)amino]carbonyl]phenyl]ethyl]-[1,1'-biphenyl]-4-butanoic acid]	475	60.3	174
CCOC(=O)CNC(=O)c1ccccc1CCC(CC(=O)c1ccc(-c2ccc(Cl)cc2)cc1)C(=O)O (stereo not drawn) [VIII, 4'-chloro-α-[2-[2-[[(2-ethoxy-2-oxo-ethyl)amino]carbonyl]phenyl]ethyl]-γ-oxo-[1,1'-biphenyl]-4-butanoic acid]	806	56.8	165
O=C(O)CNC(=O)c1ccc(CCC(CC(=O)c2ccc(-c3ccc(Cl)cc3)cc2)C(=O)O)cc1 (stereo not drawn) [Compound XXIV, α-[2-[4[[(carboxymethyl)amino]carbonyl]phenyl]ethyl]-4'-chloro-γ-oxo-[1,1'-biphenyl]-4-butanoic acid]	915	82.4	293
